Tests used:
[1] = Dissolution of compounds in PEG-12 GDO lipid; assay type: physicochemical
Procedure: It will be appreciated that, while liposomes form spontaneously at the temperature of formation, cooling of liposomes after formation results in liposomes in trapped kinetic states. To minimize distortions in liposome structure upon such cooling, sterols such as cholesterol may be mixed with the lipid before liposome formation. It has been observed that cholesterol may be dissolved in PEG-12 GDO at up to about 10 percent by weight.
Tretinoin (all-trans retinoic acid), 6 mg, was dissolved in 500 μl of PEG-12 Glyceryl Dioleate. […] Distilled water, […], was added to the mixture and gently mixed. This yielded a concentration of 1 mg/ml. […] This solution can easily be incorporated into a cream, gel or lotion dosage form.

[2] = Spontaneous liposome formation of single lipids mixed with aqueous solution; assay type: physicochemical
Procedure: Lipids were tested at 2 weight percent in aqueous solution. Note that GDL means glycerol dilaurate, GDO means glycerol dioleate, GDM means glycerol dimyristate, GDP means glycerol dipalmitate, and GDS means glycerol distearate. For each lipid, the number after “PEG” indicates the numbers of C2H4O subunits in the PEG chain. The unsaturated dioleate lipids have similar packing parameters to the saturated dimyristate lipids.
Single lipids were tested for their ability to spontaneously form liposomes when mixed with an aqueous solution. PEG-12 GDO was obtained from Global 7 (New Jersey). All other lipids were synthesized for the experiment (see Table 1). For each experiment, water and lipid were separately equilibrated at the appropriate temperature. Two weight percent lipid was added to the aqueous solution, and the solution was analyzed for the presence of liposomes by optical light microscopy, cryo TEM, freeze fracture TEM, or hot stage microscopy.

CC(C)CCC[C@@H](C)[C@H]1CC[C@H]2[C@@H]3CC=C4C[C@@H](O)CC[C@]4(C)[C@H]3CC[C@]12C [cholesterol]
amount dissolved in PEG-12 GDO ([1]; in PEG-12 GDO): up to 10 percent by weight

CC1=C(/C=C/C(C)=C/C=C/C(C)=C/C(=O)O)C(C)(C)CCC1 [Tretinoin, all-trans retinoic acid, reference compound]
dissolution in PEG-12 Glyceryl Dioleate ([1]; 6 mg in 500 μl of PEG-12 Glyceryl Dioleate): Dissolution was complete

PEG-12 Glyceryl Dioleate [PEG-12 GDO]
Spontaneous Liposomes at 20° C. ([2]; 2 weight percent lipid in aqueous solution, 20° C.): YES
Spontaneous Liposomes at 37° C. ([2]; 2 weight percent lipid in aqueous solution, 37° C.): YES
Spontaneous Liposomes at 60° C. ([2]; 2 weight percent lipid in aqueous solution, 60° C.): YES
spontaneous liposome formation ([2]; all temperatures tested): spontaneously forms liposomes at all temperatures tested
